The target of the assay is T1, sGC (Rattus norvegicus, UniProt P20595).
T1 construct: expressed in transfected cells; host or cells: CHO reporter cell
Nature of the assay: Action at a recombinant guanylate cyclase reporter cell line (CHO reporter cell). The class given is cell-based. The conditions noted are these: CHO reporter cell in vitro. As for the experimental part: The cellular action of the compounds according to the invention is determined at a recombinant guanylate cyclase reporter cell line, as described in F. Wunder et al., Anal. Biochem. 339, 104-112 (2005).

From patent publication US9018258B2, “Substituted 1-benzylcycloalkylcarboxylic acids and the use thereof” (Bayer Intellectual Property GmbH, priority 2010, dated 2015) come the findings set out here.

T1 sequence (P19686 whole entry partner): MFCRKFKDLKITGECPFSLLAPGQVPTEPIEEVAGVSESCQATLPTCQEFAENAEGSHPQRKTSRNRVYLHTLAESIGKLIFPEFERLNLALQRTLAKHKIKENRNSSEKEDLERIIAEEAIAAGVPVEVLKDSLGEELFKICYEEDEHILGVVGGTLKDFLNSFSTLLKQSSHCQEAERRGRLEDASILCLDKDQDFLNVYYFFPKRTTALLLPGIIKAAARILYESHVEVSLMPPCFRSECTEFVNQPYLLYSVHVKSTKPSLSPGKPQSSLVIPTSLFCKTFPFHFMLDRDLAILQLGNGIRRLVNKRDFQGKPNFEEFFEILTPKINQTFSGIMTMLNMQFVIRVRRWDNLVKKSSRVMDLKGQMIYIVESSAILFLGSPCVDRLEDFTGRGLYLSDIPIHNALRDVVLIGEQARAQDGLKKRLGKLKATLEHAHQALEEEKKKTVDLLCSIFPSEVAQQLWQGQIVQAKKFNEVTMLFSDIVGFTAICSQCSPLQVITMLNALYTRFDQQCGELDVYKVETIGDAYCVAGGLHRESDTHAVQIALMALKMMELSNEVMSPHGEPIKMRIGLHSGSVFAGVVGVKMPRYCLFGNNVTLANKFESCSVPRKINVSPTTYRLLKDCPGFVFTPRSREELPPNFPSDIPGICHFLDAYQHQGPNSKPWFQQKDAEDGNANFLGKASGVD
T1 sequence (P20595 whole entry): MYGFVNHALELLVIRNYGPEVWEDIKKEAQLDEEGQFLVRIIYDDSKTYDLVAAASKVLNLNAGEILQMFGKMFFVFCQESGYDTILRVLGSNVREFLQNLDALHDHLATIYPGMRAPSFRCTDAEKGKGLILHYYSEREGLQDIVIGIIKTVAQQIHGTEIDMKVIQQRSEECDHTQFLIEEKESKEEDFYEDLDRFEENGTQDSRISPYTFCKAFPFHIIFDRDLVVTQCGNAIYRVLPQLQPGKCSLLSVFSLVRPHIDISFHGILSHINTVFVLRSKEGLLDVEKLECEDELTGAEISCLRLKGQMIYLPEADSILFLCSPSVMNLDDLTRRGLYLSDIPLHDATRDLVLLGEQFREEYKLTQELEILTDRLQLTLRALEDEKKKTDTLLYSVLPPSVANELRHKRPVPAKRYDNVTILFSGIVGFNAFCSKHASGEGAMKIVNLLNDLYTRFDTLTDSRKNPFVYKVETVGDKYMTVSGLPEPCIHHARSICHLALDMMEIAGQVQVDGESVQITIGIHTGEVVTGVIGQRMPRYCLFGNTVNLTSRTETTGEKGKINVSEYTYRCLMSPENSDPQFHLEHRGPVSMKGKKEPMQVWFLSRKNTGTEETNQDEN

With `O=C(Nc1cccc(CC2(C(=O)O)CC2)c1F)C(c1ccc(Cl)cc1)C1CCCC1` (racemic) [Example 6, (+/−)-1-(3-{[(4-chlorophenyl)(cyclopentyl)acetyl]-amino}-2-fluorobenzyl)cyclopropanecarboxylic acid], the “MEC (minimum effective concentration), sGC-activating activity in the CHO reporter cell” value (“MEC (minimum effective concentration)” for short) is on record as 30 nM. Take `O=C(Nc1cc(CC2(C(=O)O)CC2)ccc1F)C(c1ccc(Cl)cc1)C1CCCC1` (racemic) [Example 8, (+/−)-1-(3-{[(4-chlorophenyl)(cyclopentyl)acetyl]-amino}-4-fluorobenzyl)cyclopropanecarboxylic acid]: the “MEC (minimum effective concentration)” value was 3 nM. Consider `CCc1ccc(C(C(=O)Nc2cc(CC3(C(=O)O)CC3)ccc2F)C(C)C(F)(F)F)cc1` (racemic) [Example 9, (+/−)-1-(3-{[2-(4-ethylphenyl)-4,4,4-trifluoro-3-methylbutanoyl]amino}-4-fluorobenzyl)-cyclopropanecarboxylic acid], for which the “MEC (minimum effective concentration)” value was found to be 1 nM. The result for `O=C(Nc1cc(CC2(C(=O)O)CC2)ccc1F)C(c1ccc(Cl)cc1F)C1CCCC1` (racemic) [Example 11, (+/−)-1-(3-{[(4-chloro-2-fluorophenyl)(cyclo-pentyl)acetyl]amino}-4-fluorobenzyl)-cyclopropanecarboxylic acid] reads 1 nM; that for `O=C(Nc1cccc(CC2(C(=O)O)CC2)c1)C(c1ccc(C=C(F)F)cc1)C1CCCC1` (racemic) [Example 12, (+/−)-1-[3-({cyclopentyl[4-(2,2-difluorovinyl)-phenyl]acetyl}amino)benzyl]cyclopropane-carboxylic acid], 100 nM. The result for `C=Cc1ccc(C(C(=O)Nc2cccc(CC3(C(=O)O)CC3)c2)C2CCCC2)cc1` (racemic) [Example 13, (+/−)-1-(3-{[cyclopentyl(4-vinylphenyl)acetyl]-amino}benzyl)cyclopropanecarboxylic acid] reads 30 nM. The result for `O=C(Nc1cccc(CC2(C(=O)O)CC2)c1)C(c1ccc(CC(F)F)cc1)C1CCCC1` (racemic) [Example 14, (+/−)-1-[3-({cyclopentyl[4-(2,2-difluoroethyl)-phenyl]acetyl}amino)benzyl]cyclopropane-carboxylic acid] reads 100 nM.

On to `N#Cc1ccc(C(C(=O)Nc2cc(CC3(C(=O)O)CC3)ccc2F)C2CCCC2)cc1` (racemic) [Example 15, (+/−)-1-(3-{[(4-cyanophenyl)(cyclopentyl)acetyl]-amino}-4-fluorobenzyl)cyclopropanecarboxylic acid], for which the “MEC (minimum effective concentration)” value came to 30 nM. Consider `O=C(Nc1cc(CC2(C(=O)O)CC2)ccc1F)C(c1ccc([N+](=O)[O-])cc1)C1CCCC1` (racemic) [Example 16, (+/−)-1-(3-{[(4-nitrophenyl)(cyclopentyl)acetyl]-amino}-4-fluorobenzyl)cyclopropanecarboxylic acid], for which the “MEC (minimum effective concentration)” value came to 10 nM. The result for `O=C(Nc1cccc(CC2(C(=O)O)CC2)c1)C(c1ccc(C(F)(F)F)cc1)C1CCCC1` (racemic) [Example 53, (+/−)-1-[3-({Cyclopentyl[4-(trifluoromethyl)phenyl]acetyl}amino)benzyl]cyclopropanecarboxylic acid] reads 10 nM; that for `O=C(Nc1cc(CC2(C(=O)O)CC2)ccc1F)C(c1ccc(Cl)cc1)C1CCCC1(F)F` (racemic) [Example 65, 1-(3-{[(4-Chlorophenyl)(2,2-difluorocyclopentyl)acetyl]amino}-4-fluorobenzyl)cyclopropane-carboxylic acid], 5.3 nM; that for `O=C(Nc1cc(CC2(C(=O)O)CC2)ccc1F)C(c1ccc(Cl)cc1)C1CCC(F)(F)C1` (single isomer, unassigned) [Example 78, 1-(3-{[(4-Chlorophenyl)(3,3-difluorocyclopentyl)acetyl]amino}-4-fluorobenzyl)cyclopropanecarboxylic acid], 3 nM.

For the compound `CC(C(C(=O)Nc1cccc(CC2(C(=O)O)CC2)c1)c1ccc(C(F)(F)F)cc1)C(F)(F)F` (single isomer, unassigned) [Example 80, 1-[3-({4,4,4-Trifluoro-3-methyl-2-[4-(trifluoromethyl)phenyl]butanoyl}amino)benzyl]cyclo-propanecarboxylic acid], the “MEC (minimum effective concentration)” value worked out at 3 nM. On to `CC(C(C(=O)Nc1cccc(CC2(C(=O)O)CC2)c1)c1ccc(Cl)cc1)C(F)(F)F` (single isomer, unassigned) [Example 84, 1-(3-{[2-(4-Chlorophenyl)-4,4,4-trifluoro-3-methylbutanoyl]amino}benzyl)cyclopropane-carboxylic acid], for which the “MEC (minimum effective concentration)” value amounted to 20 nM. The result for `C[C@H]([C@H](C(=O)Nc1cc(C(O)C2(C(=O)O)CC2)ccc1Cl)c1ccc(Cl)cc1)C(F)(F)F` (single isomer, unassigned) [Example 103] reads 60 nM; that for `C[C@H]([C@H](C(=O)Nc1cc(C(O)C2(C(=O)O)CC2)ccc1Cl)c1ccc(Cl)cc1)C(F)(F)F` (single isomer, unassigned) [Example 104], 20 nM; that for `C[C@H]([C@H](C(=O)Nc1cc(C(OC2CC2)C2(C(=O)O)CC2)ccc1Cl)c1ccc(Cl)cc1)C(F)(F)F` (single isomer, unassigned) [Example 113], 0.3 nM. As for `C[C@H]([C@H](C(=O)Nc1cc(C(OC2CC2)C2(C(=O)O)CC2)ccc1Cl)c1ccc(Cl)cc1)C(F)(F)F` (single isomer, unassigned) [Example 114], the “MEC (minimum effective concentration)” value is listed as 3 nM. As to `O=C(Nc1cc(CC2(C(=O)O)CC2)ccc1F)[C@H](c1ccc(Cl)cc1)C1CCCC1(F)F` (single isomer, unassigned; (+)) [Example 67], the “MEC (minimum effective concentration)” value is given as 3 nM. The result for `C[C@H]([C@H](C(=O)Nc1cc(CC2(C(=O)O)CC2)ccc1F)c1ccc(F)cc1)C(F)(F)F` [Example 22, (+)-1-(4-fluoro-3-{[(2S,3R)-4,4,4-trifluoro-2-(4-fluorophenyl)-3-methylbutanoyl]amino}-benzyl)cyclopropanecarboxylic acid] reads 10 nM; that for `CCc1ccc([C@@H](C(=O)Nc2cc(CC3(C(=O)O)CC3)ccc2F)[C@@H](C)C(F)(F)F)cc1` [Example 25, (+)-1-(3-{[(2S,3R)-2-(4-ethylphenyl)-4,4,4-tri-fluoro-3-methylbutanoyl]amino}-4-fluorobenzyl)-cyclopropanecarboxylic acid], 0.3 nM. The result for `C[C@H]([C@H](C(=O)Nc1cccc(CC2(C(=O)O)CC2)c1Cl)c1ccc(Cl)cc1)C(F)(F)F` [Example 27, (+)-1-(2-chloro-3-{[(2S,3R)-2-(4-chlorophenyl)-4,4,4-trifluoro-3-methylbutanoyl]amino}benzyl)-cyclopropanecarboxylic acid] reads 100 nM; that for `C[C@H]([C@H](C(=O)Nc1ccc(Cl)c(CC2(C(=O)O)CC2)c1F)c1ccc(Cl)cc1)C(F)(F)F` [Example 28, 1-(6-chloro-3-{[(2S,3R)-2-(4-chlorophenyl)-4,4,4-trifluoro-3-methylbutanoyl]amino}-2-fluorobenzyl)cyclopropanecarboxylic acid], 3 nM. Regarding `O=C(Nc1cc(CC2(C(=O)O)CC2)ccc1F)C(c1ccc(Cl)cc1)C1CCC(F)(F)C1` (centres unmarked) [Example 34, 1-(3-{[(4-chlorophenyl)(3,3-difluorocyclopentyl)-acetyl]amino}-4-fluorobenzyl)cyclopropane-carboxylic acid], the “MEC (minimum effective concentration)” value is on record as 10 nM. Consider `O=C(Nc1cc(CC2(C(=O)O)CC2)ccc1Cl)C(c1ccc(Cl)cc1)C1CCC(F)(F)C1` (centres unmarked) [Example 35, 1-(3-{[(4-chlorophenyl)(3,3-difluorocyclopentyl)-acetyl]amino}-4-chlorobenzyl)cyclopropane-carboxylic acid], for which the “MEC (minimum effective concentration)” value was 10 nM. The result for `CC(C)c1ccc([C@@H](C(=O)Nc2cc(CC3(C(=O)O)CC3)ccc2F)[C@@H](C)C(F)(F)F)cc1` [Example 37, 1-(4-fluoro-3-{[(2S,3R)-4,4,4-trifluoro-2-(4-isopropylphenyl)-3-methylbutanoyl]amino}-benzyl)cyclopropanecarboxylic acid] reads 0.1 nM; that for `C[C@H]([C@H](C(=O)Nc1cc(CC2(C(=O)O)CC2)ccc1F)c1ccc(C(C)(C)C)cc1)C(F)(F)F` [Example 39, 1-(3-{[(2S,3R)-2-(4-tert-butylphenyl)-4,4,4-trifluoro-3-methylbutanoyl]amino}-4-fluorobenzyl)cyclopropanecarboxylic acid], 0.3 nM; that for `C[C@H]([C@H](C(=O)Nc1cc(CC2(C(=O)O)CC2)ccc1Cl)c1ccc(C(F)(F)F)cc1)C(F)(F)F` [Example 41, 1-[4-chloro-3-({(2S,3R)-4,4,4-trifluoro-3-methyl-2-[4-(trifluoromethyl)phenyl]butanoyl}amino)-benzyl]cyclopropanecarboxylic acid], 1 nM.

Regarding `CC(C(C(=O)Nc1cc(CC2(C(=O)O)CC2)ccc1Cl)c1ccc(CC(F)(F)F)cc1)C(F)(F)F` (centres unmarked) [Example 46, 1-[4-chloro-3-({4,4,4-trifluoro-3-methyl-2-[4-(2,2,2-trifluoroethyl)phenyl]butanoyl}amino)-benzyl]cyclopropanecarboxylic acid], the “MEC (minimum effective concentration)” value is 1 nM.
